A value given as a limit tells only on which side of the number the result lay.

As usually defined, the IC50 is the concentration needed to halve the response being measured. What is called IC90 is the point of the concentration-response curve where the effect stands at 90%.

The assay concerns Plasmodium berghei. The experiment in a line: Luciferase/luciferin-expressing antifolate-resistant parasites were used to infect a culture of HepG2 cells that were pre-incubated with compounds. Infected hepatocytes emit light due to the luciferase reaction. Assay results are presented as the percent inhibition of light emission compared to control. […]. Format: functional. The conditions noted are these: sporozoite; for IC90: read-out: LUCIFERASE INFECTION ASSAY - IC90.

Where [1] appears, read: read-out: LUCIFERASE INFECTION ASSAY - IC50.

As for `CC(C)(C)c1cc(C(=O)OCC(=O)N2CCCCC2)cc(C(C)(C)C)c1`, the 90% effect concentration (IC90) is over 10 µM. The half-maximal inhibitory concentration (IC50) (PBLUC_HILL_SLOPE 1.88, PBLUC_R_SQUARED 0.16, read-out: LUCIFERASE INFECTION ASSAY - IC50) came out at 8.44 µM.
On to `CCCOc1c(Cl)cc(C(=O)N2CCN(C)c3nc4ccccc4nc32)cc1OCC`, for which the IC90 is over 10 µM. Further, under setting [1], the IC50 was over 10 µM.
`CCN(CC)S(=O)(=O)c1ccc2c(c1)CCN2Cc1nc2ccccc2c(=O)n1C`: the concentration for an effect of 90% (IC90) is over 10 µM. Moreover, the IC50 (HEPG2TOX_HILL_SLOPE 0.751, HEPG2TOX_R_SQUARED 0.213, PBLUC_HILL_SLOPE 2.58, PBLUC_R_SQUARED 0.526, read-out: LUCIFERASE INFECTION ASSAY - IC50) was determined as 6.02 µM.
`Cc1ccc(F)cc1NS(=O)(=O)c1ccc(-n2ncc(Cl)c(Cl)c2=O)cc1`: the 90% effect concentration (IC90) stood at 6.47 µM. Besides, the 50% inhibitory concentration (IC50) (HEPG2TOX_HILL_SLOPE 2.56, 7.18, HEPG2TOX_R_SQUARED 0.970, 0.512, PBLUC_HILL_SLOPE 2.23, 0.224, PBLUC_R_SQUARED 0.767, 0.129, read-out: LUCIFERASE INFECTION ASSAY - IC50) was determined as 2.08 µM.
Consider `Cc1cc(C)cc(C(=O)N(CC2CCCO2)c2nc3ccccc3s2)c1` (centres undefined), for which the IC90 was over 10 µM. The IC50 (FFLUC_HILL_SLOPE 16.6, FFLUC_R_SQUARED 0.205, read-out: LUCIFERASE INFECTION ASSAY - IC50) is over 10 µM.
Take `Clc1cccc(-c2cn3c(-c4ccncc4)cnc3cn2)c1`: the IC90 was over 10.8 µM. Besides, the 50% inhibitory concentration (IC50) (FFLUC_HILL_SLOPE 4.91, FFLUC_R_SQUARED 0.112, HEPG2TOX_HILL_SLOPE 0.251, HEPG2TOX_R_SQUARED 0.199, PBLUC_HILL_SLOPE 3.54, PBLUC_R_SQUARED 0.544, read-out: LUCIFERASE INFECTION ASSAY - IC50) stood at 6.34 µM.
Take `COc1cc(NC(=O)Cc2c(F)cccc2Cl)cc(OC)c1OC`: the IC90 is over 10 µM. The IC50 under setting [1] is over 10 µM.
Turning to `CCOC(/C=C1\Sc2c(ccc3c2CCCC3)N1CC)=C1/SC(=S)N(CC)C1=O`, the IC90 is over 10 µM. Moreover, the IC50 under setting [1] is over 10 µM.
For `Cc1cc(C)c(NC(=O)CN(C)C2CC(=O)N(C)C2=O)c(C)c1` (centres undefined), the 90% effect concentration (IC90) was over 10 µM. In addition, the half-maximal inhibitory concentration (IC50) (HEPG2TOX_HILL_SLOPE 0.116, HEPG2TOX_R_SQUARED 0.0867, read-out: LUCIFERASE INFECTION ASSAY - IC50) is over 10 µM.
For the molecule `CCOC(=O)c1cc(NC(=O)c2ccc(Cl)c(S(=O)(=O)N(Cc3ccccc3)c3ccccc3OC)c2)cc(C(=O)OCC)c1`, the 90% effect concentration (IC90) is over 10 µM. Also, the 50% inhibitory concentration (IC50) (FFLUC_HILL_SLOPE 3.02, FFLUC_R_SQUARED 0.375, read-out: LUCIFERASE INFECTION ASSAY - IC50) is over 10 µM.
Regarding `Cc1ccc(/C=C/C(=O)NC2CCCc3ccccc32)o1` (centres undefined), the 90% effect concentration (IC90) was over 10 µM. The half-inhibitory concentration (IC50) (FFLUC_HILL_SLOPE 16.2, FFLUC_R_SQUARED 0.0896, read-out: LUCIFERASE INFECTION ASSAY - IC50) is over 10 µM.
In the case of `Cn1c(NCC2CC2)nc2cnc(-c3cccc(Oc4ccccc4)c3)cc21`, the IC90 is over 10 µM. In addition, under setting [1], the IC50 turned out to be 5.67 µM.
Take `Cc1ccc(S(=O)(=O)N2CCCCC2)cc1NC(=O)C[N+]12CCN(CC1)CC2`: the IC90 was over 10 µM. Further, under setting [1], the IC50 was over 10 µM.
Take `CCCCNC(=O)c1c(NC(=O)c2ccccc2C)nc2ccc(C)cn12`: the IC90 is over 9.05 µM. In addition, the half-inhibitory concentration (IC50) under setting [1] came to 6.48 µM.
On to `CCOC(=O)c1cnn(-c2ccc(NC(=O)c3sc4nc5n(c(=O)c4c3C)CCC5)cc2)c1C`, for which the 90% effect concentration (IC90) amounted to 2.97 µM. Also, the IC50 (HEPG2TOX_HILL_SLOPE 2.74, HEPG2TOX_R_SQUARED 0.98, PBLUC_HILL_SLOPE 1.74, PBLUC_R_SQUARED 0.848, read-out: LUCIFERASE INFECTION ASSAY - IC50) turned out to be 0.838 µM.
For the molecule `CCN(CC)S(=O)(=O)c1ccc2[nH]c(=O)cc(C(=O)Nc3cc(Cl)c(OC)cc3OC)c2c1`, the IC90 was over 10 µM. Moreover, the IC50 under setting [1] is over 10 µM.
For `CCCCN(C(=O)c1cccnc1SC)c1nc2ccc(C)cc2s1`, the IC90 is over 10 µM. Also, under setting [1], the IC50 is over 10 µM.
With `O=C(Nc1nn2cc(-c3ccccc3)nc2s1)C1CCC1`, the IC90 came to 1.39 µM. Further, under “FFLUC_HILL_SLOPE 1.5, FFLUC_R_SQUARED 0.884, PBLUC_HILL_SLOPE 0.386, PBLUC_R_SQUARED 0.673, read-out: LUCIFERASE INFECTION ASSAY - IC50”, the concentration for half-maximal inhibition (IC50) was determined as 0.0047 µM.
For `O=C(Nc1ccccc1)c1ccc(C2(CNCc3cccnc3)CC2)cc1`, the IC90 was found to be 0.637 µM. Further, the concentration for half-maximal inhibition (IC50) (PBLUC_HILL_SLOPE 3.24, PBLUC_R_SQUARED 0.623, read-out: LUCIFERASE INFECTION ASSAY - IC50) stood at 0.323 µM.
`CC(=O)c1cccc(-c2cnc3cnc(-c4ccc(CO)cc4)cn23)c1`: the IC90 was over 9.61 µM. The IC50 (PBLUC_HILL_SLOPE 6.05, PBLUC_R_SQUARED 0.635, read-out: LUCIFERASE INFECTION ASSAY - IC50) is 7.62 µM.
With `CCc1c(C)sc2nc(SCC3COc4ccccc4O3)n(-c3ccc(C)c(C)c3)c(=O)c12` (centres undefined), the IC90 is over 10 µM. In addition, the concentration for half-maximal inhibition (IC50) under setting [1] was over 10 µM.
For `CC1S/C(=C\c2nc3ccccc3s2)NC1=O` (centres undefined), the concentration for an effect of 90% (IC90) was over 10 µM. Besides, the 50% inhibitory concentration (IC50) (HEPG2TOX_HILL_SLOPE 1.83, HEPG2TOX_R_SQUARED 0.983, PBLUC_HILL_SLOPE 1.76, PBLUC_R_SQUARED 0.572, read-out: LUCIFERASE INFECTION ASSAY - IC50) was 3.43 µM.
`Cc1nc(Sc2nnnn2-c2ccccc2)c2c3c(sc2n1)CCC3`: the concentration for an effect of 90% (IC90) was over 10 µM. In addition, for the setting “HEPG2TOX_HILL_SLOPE 9.14, HEPG2TOX_R_SQUARED 0.239, read-out: LUCIFERASE INFECTION ASSAY - IC50”, the IC50 was over 10 µM.
Consider `COc1cccc(Nc2nccc3[nH]c(-c4cc(OC)cc(OC)c4)cc23)c1`, for which the IC90 worked out at 1.74 µM. The half-maximal inhibitory concentration (IC50) (HEPG2TOX_HILL_SLOPE 0.988, HEPG2TOX_R_SQUARED 0.934, PBLUC_HILL_SLOPE 2.38, PBLUC_R_SQUARED 0.617, read-out: LUCIFERASE INFECTION ASSAY - IC50) amounted to 0.69 µM.
As for `Oc1cccc2c(NC(S)=Nc3ccc(SC(F)F)cc3)cccc12`, the IC90 worked out at 7.7 µM. Besides, the IC50 (FFLUC_HILL_SLOPE 69.3, FFLUC_R_SQUARED 0.272, PBLUC_HILL_SLOPE 39, PBLUC_R_SQUARED 0.0559, read-out: LUCIFERASE INFECTION ASSAY - IC50) was 7.27 µM.
On to `Cc1ccnc(NC(c2ccccn2)c2ccc3cccnc3c2O)c1` (centres undefined), for which the concentration for an effect of 90% (IC90) was over 9.64 µM. For the same molecule, the IC50 (FFLUC_HILL_SLOPE 17.7, FFLUC_R_SQUARED 0.0708, HEPG2TOX_HILL_SLOPE 10.6, HEPG2TOX_R_SQUARED 0.571, PBLUC_HILL_SLOPE 38.3, PBLUC_R_SQUARED 0.424, read-out: LUCIFERASE INFECTION ASSAY - IC50) came out at 9.27 µM.
As for `CCOC(=O)c1sc(-c2ccccc2)cc1NC(=O)COC(=O)c1c2c(nc3ccccc13)CCC(C)C2` (centres undefined), the IC90 is over 10 µM. Further, under “FFLUC_HILL_SLOPE 0.238, FFLUC_R_SQUARED 0.508, read-out: LUCIFERASE INFECTION ASSAY - IC50”, the half-maximal inhibitory concentration (IC50) was over 10 µM.
Consider `CC(C)(C)NC(=S)N/N=C/c1cc([N+](=O)[O-])ccc1O`, for which the concentration for an effect of 90% (IC90) was 11.1 µM. Further, the IC50 (HEPG2TOX_HILL_SLOPE 9.08, HEPG2TOX_R_SQUARED 0.437, PBLUC_HILL_SLOPE 15.5, PBLUC_R_SQUARED 0.332, read-out: LUCIFERASE INFECTION ASSAY - IC50) was determined as 9.61 µM.
In the case of `CNC(=O)c1nnsc1[S+]([O-])c1ccc(Cl)cc1` (centres undefined), the IC90 was over 10.9 µM. Further, the half-inhibitory concentration (IC50) (FFLUC_HILL_SLOPE 1.33, FFLUC_R_SQUARED 0.248, HEPG2TOX_HILL_SLOPE 10.3, HEPG2TOX_R_SQUARED 0.738, read-out: LUCIFERASE INFECTION ASSAY - IC50) was over 10.9 µM.
Consider `CN(C)CCNc1ccnc2c(-c3ccccc3Oc3ccccc3)cnn12`, for which the IC90 was over 8.84 µM. Moreover, the concentration for half-maximal inhibition (IC50) (PBLUC_HILL_SLOPE 1.31, PBLUC_R_SQUARED 0.651, read-out: LUCIFERASE INFECTION ASSAY - IC50) is 5.14 µM.
`Cc1ccccc1C(Sc1nnc(-c2ccc[nH]2)o1)c1ccccc1` (centres undefined): the 90% effect concentration (IC90) is over 10 µM. Where the note is “HEPG2TOX_HILL_SLOPE 0.627, HEPG2TOX_R_SQUARED 0.488, read-out: LUCIFERASE INFECTION ASSAY - IC50”, the half-maximal inhibitory concentration (IC50) is over 10 µM.
As for `Cc1ccccc1NC(=S)N/N=C/c1ccccc1[N+](=O)[O-]`, the IC90 is 3.66 µM. The IC50 (HEPG2TOX_HILL_SLOPE 11.4, HEPG2TOX_R_SQUARED 0.668, PBLUC_HILL_SLOPE 15.4, PBLUC_R_SQUARED 0.358, read-out: LUCIFERASE INFECTION ASSAY - IC50) amounted to 3.17 µM.
With `COc1cc(/C=C(\C#N)c2ccc(C)cc2)cc(OC)c1OC`, the IC90 was 4.54 µM. Also, the half-inhibitory concentration (IC50) (HEPG2TOX_HILL_SLOPE 1.64, HEPG2TOX_R_SQUARED 0.962, PBLUC_HILL_SLOPE 4.59, PBLUC_R_SQUARED 0.528, read-out: LUCIFERASE INFECTION ASSAY - IC50) came out at 2.82 µM.
Consider `CCCN1CCN(c2c3ccc(Cl)cc3nc3ccc(OC)cc23)CC1`, for which the IC90 is over 10 µM. Also, under setting [1], the IC50 is over 10 µM.
As to `O=C(CCN1C(=O)c2ccccc2C1=O)OCc1cc(=O)oc2cc(O)ccc12`, the IC90 is over 10 µM. Besides, the IC50 under setting [1] was over 10 µM.
For `COCc1c(C(=O)Nc2nnc(C3CCCCC3)s2)oc2ccccc12`, the concentration for an effect of 90% (IC90) is over 10 µM. For the same molecule, under setting [1], the half-inhibitory concentration (IC50) was over 10 µM.
Consider `Cc1cc(C)c(S(=O)(=O)N2CCC(C(=O)N3CCn4c3nc3ccccc34)CC2)c(C)c1`, for which the IC90 was over 10 µM. Further, under “PBLUC_HILL_SLOPE 1.44, PBLUC_R_SQUARED 0.637, read-out: LUCIFERASE INFECTION ASSAY - IC50”, the half-maximal inhibitory concentration (IC50) was found to be 3.45 µM.

The values are drawn from ChEMBL document CHEMBL4483862, “Open-source discovery of chemical leads for next-generation chemoprotective antimalarials” (2018).
